Laboratory results from US20250262152A1, “DEVICES, SYSTEMS, KITS, AND METHODS FOR DRUG DELIVERY TO THE SPINAL CORD” (Ohio State Innovation Foundation, priority 2022, published 2025).

Test: proof-of-principle fluorescence tracer study: delivery to the spinal cord with dumbbell-shaped dual chamber stentgraft and histamine portal
Type: in vivo
Protocol: As a proof-of-principle study, we evaluated this strategy by using a dumbbell-shaped dual chamber stentgraft to deliver a fluorescent tracer (fluorescein dye) to the spinal cord. In this fluorescence tracer study, delivery of the tracer to the spinal cord using the dumbbell stentgraft was performed using a histamine portal (see FIGS. 3A-3C and FIG. 5). The dual chamber stent was used to deliver a “pulse” of histamine specifically to the spinal cord region of interest to create a “portal” in the BBB (i.e., a local increase in BBB permeability).
Dual chamber, retrievable stent graft: Stents were laser cut from the shape memory alloy, nitinol, and thermally shapeset into a dumbbell shape. The scaffold was affixed to a permanently attached delivery/retrieval wire, encapsulated in the polymer polytetrafluoroethelene (Zeus, Inc) with a perfusion cannula to the outer chamber and compressed into a sheath for endovascular delivery.

O=C1OC2(c3ccc(O)cc3Oc3cc(O)ccc32)c2ccccc21 [fluorescein]
staining of spinal cord cross sections viewed under UV Woods lamp (histamine pulse followed by tracer delivered to outer chamber of dual chamber stentgraft, FIG. 3C): successful staining of the entirety of the spinal cord | delivery of fluorescein to the spinal cord (local administration in combination with portal agent (histamine) as compared to intravascular tracer injection alone, FIG. 5): much higher
